# Source: the supplement of paper PMC10307832
# What was measured:
# Test in all cases: relative viability (nuclei count vs DMSO), 5 days (fraction); higher = more cells survive
# [1] = compound: CC1=C(C(=NN1)C)CC2=C(C3=C(S2)N(C(=O)N(C3=O)C)CC(C)C)C(=O)N4C[C@@H](CO4)O + C[C@]1(O)C[C@@H](c2nc(-c3ccc4ccc(-c5ccccc5)nc4c3)c3c(N)nccn32)C1 [Linsitinib] (partner 1 µM)
# Summary of the method: (§1)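 Lung cancer cell lines in 1536-well plates were dosed by pin tool the day after seeding, either with one drug alone or with a fixed anchor-drug dose plus five library-drug doses (not always all listed) in √10 steps. After 5 days, cells were fixed and their nuclei stained in one step (final 0.05% Triton X-100, 1% formaldehyde, 1 ug/ml Hoechst), then counted on 4× images. Relative viability is the nuclei count in treated wells divided by that in vehicle wells. Values are medians of duplicate plates.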
# [2] = compound: CC1=C(C(=NN1)C)CC2=C(C3=C(S2)N(C(=O)N(C3=O)C)CC(C)C)C(=O)N4C[C@@H](CO4)O + O=C(CCCCCCC(=O)Nc1ccccc1)NO [Vorinostat] (partner 1 µM)
# Summary of the method: as §1
# IDH-C35 + Alpelisib = compound: Cc1ccccc1C(C(=O)NC1CCCCC1)N(C(=O)Cn1ccnc1C)c1cccc(F)c1 [IDH-C35] + Cc1nc(NC(=O)N2CCC[C@H]2C(N)=O)sc1-c1ccnc(C(C)(C)C(F)(F)F)c1 [Alpelisib] (partner 2 µM)
# Summary of the method: as §1
# [3] = compound: CC1=C(C(=NN1)C)CC2=C(C3=C(S2)N(C(=O)N(C3=O)C)CC(C)C)C(=O)N4C[C@@H](CO4)O + N=C(N)NC(=N)NCCc1ccccc1 [Phenformin] (partner 250 µM)
# Summary of the method: as §1
cell line,measurement,setting,value
UMC-11,relative viability,[1]; first compound 0.0025 µM,1.01
same,relative viability,[1]; first compound 0.007906 µM,1
same,relative viability,[1]; first compound 0.025 µM,0.845
same,relative viability,[1]; first compound 0.07906 µM,0.793
same,relative viability,[1]; first compound 0.25 µM,0.767
same,relative viability,[2]; first compound 0.0025 µM,0.41
same,relative viability,[2]; first compound 0.007906 µM,0.429
same,relative viability,[2]; first compound 0.025 µM,0.396
same,relative viability,[2]; first compound 0.07906 µM,0.464
same,relative viability,[2]; first compound 0.25 µM,0.424
same,relative viability,IDH-C35 + Alpelisib; first compound 0.08 µM,0.998
same,relative viability,IDH-C35 + Alpelisib; first compound 0.253 µM,0.973
same,relative viability,IDH-C35 + Alpelisib; first compound 0.8 µM,0.928
same,relative viability,IDH-C35 + Alpelisib; first compound 2.53 µM,0.946
same,relative viability,IDH-C35 + Alpelisib; first compound 8 µM,0.988
same,relative viability,[3]; first compound 0.0025 µM,0.168
same,relative viability,[3]; first compound 0.007906 µM,0.195
same,relative viability,[3]; first compound 0.025 µM,0.156
same,relative viability,[3]; first compound 0.07906 µM,0.17
same,relative viability,[3]; first compound 0.25 µM,0.188
